Data from patent US20250339514A1, “SINGLE-AND MULTI-EPITOPE PEPTIDE AND MRNA VACCINES TO GENERATE TOLEROGENIC EFFECTS FOR ALLERGIC AND AUTOIMMUNE DISEASE BY TARGETING LIVER SINUSOIDAL ENDOTHELIAL CELLS” (The Regents of the University of California, priority 2022, published 2025).
Read-outs that look alike come from different tables or passages of the source.

Experiments:
[1] = Cargo loading and ApoBP ligand content by microBCA / BCA assay; format: physicochemical
Description: The relative abundance of mannan incorporation was assessed by calculating the difference between the total amount offered for conjugation versus the amount recovered in the supernatant. […] The abundance of peptide conjugation was assessed by a microBCA assay and a nanodrop method.
The purified NPs were fully characterized using dynamic light scattering to determine particle size and surface charge, and scanning electron microscopy was performed to visualize particle morphology. The microBCA assay was used to detect OVA loading capacity and the conjugation efficiency of the peptide ligand, whereas the phenol-sulfuric acid method was used to determine mannan concentration. The endotoxin level was verified by a chromogenic LAL assay.
Particles were separated and washed by centrifugation (15,000 g, 10 min). Hydrodynamic size and surface potential were measured using dynamic light scattering (DLS), with visualization of the particle size and morphology by scanning electron microscopy (SEM). […] In addition to loading of T-cell epitopes, we also selected an IgE binding peptide for encapsulation, in addition to the synthesis of nanoparticles that incorporate CPPE as well as a purified Ara h2 protein (Indoor Biotechnologies). The CPPE was prepared as described in the Online Repository section. Allergen loading capacity, including for CPPE, purified Ara h2 and its epitopes, as well as the conjugation efficacy of the ApoB ligand was determined by bicinchoninic acid assay (BCA assay).

[2] = tested on: class I MHC K, D, and L loci; details: cited from earlier work; for predicted binding to the H2-Ld locus: SYFPEITHI and BIMAS
[3] = tested on: T cell responses; set-up: Immunopositivity of predicted CTL epitope / Immunopositivity of MHC II peptide: scale not given here; details: cited from earlier work; for Immunopositivity of predicted CTL epitope: class I MHC peptides, Table 59; for Immunopositivity of MHC II peptide: MHC II peptides, Table 60
[4] = tested on: I-Ek; details: cited from earlier work; for Score (antigenic score predicted): MHC II H2-E^k; for SYFPEITHI score: I-Ek
[5] = ionizable lipid; cited from earlier work
[6] = tested on: factor VII; details: cited from earlier work
[7] = target: H2-A^k (Mus musculus, UniProt P01910+P06343); details: MHC II H2-A^k; cited from earlier work
[8] = H2 locus K, haplotype k (9-mer)
[9] = H2 locus D, haplotype b (9-mer)
[10] = H2 locus K, haplotype d (9-mer)
[11] = peptide in PLGA nanoparticles, Table 66

Chain of H2-A^k (P01910 24-256): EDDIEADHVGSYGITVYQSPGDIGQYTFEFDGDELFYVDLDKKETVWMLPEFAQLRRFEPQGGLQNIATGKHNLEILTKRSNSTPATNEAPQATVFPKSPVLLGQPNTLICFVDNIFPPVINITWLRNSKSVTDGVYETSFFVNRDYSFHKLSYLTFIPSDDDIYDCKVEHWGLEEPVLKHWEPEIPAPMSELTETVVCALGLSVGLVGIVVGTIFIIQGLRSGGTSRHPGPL
Chain of H2-A^k (P06343 28-263): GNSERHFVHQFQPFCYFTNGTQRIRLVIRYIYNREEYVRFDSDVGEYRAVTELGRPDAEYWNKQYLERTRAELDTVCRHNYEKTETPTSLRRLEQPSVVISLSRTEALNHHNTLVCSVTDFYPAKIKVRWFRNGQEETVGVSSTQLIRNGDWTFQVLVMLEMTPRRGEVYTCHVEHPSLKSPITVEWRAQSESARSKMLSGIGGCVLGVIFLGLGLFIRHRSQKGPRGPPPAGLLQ

4 (SYGRDPYSPSQDPYS; listed as Arachis hypogaea) [compound 4]
Loading Capacity ([1]; epitope in PLGA NPs, Table 68): 8.68 ± 2.04 µg/mg

SEQ ID NO: 1122 (EEIRTTNPV; listed as Arachis hypogaea)
BIM score predicted using the BIMAS program [2, 8]: 100 | SYF score predicted using the SYFPEITHI program [2, 8]: 20 | Immunopositivity of predicted CTL epitope [3]: EEIRTTNPY^e

SEQ ID NO: 1160 (GSIVNEKWID; listed as Arachis hypogaea)
BIM score predicted using the BIMAS program [2, 9]: 936 | SYF score predicted using the SYFPEITHI program [2, 9]: 26 | Immunopositivity of predicted CTL epitope [3]: GSIVNEKWI^d

SEQ ID NO: 1175 (YKYLLGPFNGLDKGEP; listed as Arachis hypogaea)
Score (antigenic score predicted) [4]: 28 | Immunopositivity of MHC II peptide [3]: YKYLLGPINGUDKGEP^d

3 (MAKLTILVALALFLL; listed as Arachis hypogaea) [compound 3]
Loading Capacity ([1]; epitope in PLGA NPs, Table 68): 1.31 + 1.72 μg/mg

CCCCC/C=C\C/C=C\CCCCCCCCC(CCCCCCCC/C=C\C/C=C\CCCCC)OC(=O)CCCN(C)C [DLin-MC3-DMA, (6Z,9Z,28Z,31Z)-heptatriaconta-6,9,28,31-tetraen-19-yl-4-(dimethylamino) butanoate]
pKa [5]: 6.44 | potency ([6]; higher potency than DLin-KC2-DMA): 10 fold

SEQ ID NO: 1151 (KYNHDIALL; listed as Arachis hypogaea)
BIM score predicted using the BIMAS program [2, 10]: 3456 | SYF score predicted using the SYFPEITHI program [2, 10]: 24 | Immunopositivity of predicted CTL epitope [3]: KYNHDIALL^c

SEQ ID NO: 1161 (LDHENANKI; listed as Arachis hypogaea)
BIM score predicted using the BIMAS program [2, 9]: 240 | SYF score predicted using the SYFPEITHI program [2, 9]: 23 | Immunopositivity of predicted CTL epitope [3]: LDHENANKI^e

SEQ ID NO: 1178 (NSYVTPICIADEKEYT; listed as Arachis hypogaea)
Score (antigenic score predicted) [4]: 24 | Immunopositivity of MHC II peptide [3]: NSYVTPICIADKEYT^c

SEQ ID NO: 1176 (IVADNLQQQNTAPQI; listed as Arachis hypogaea)
Score (antigenic score predicted) [7]: 26

#3 (MAKLTILVALALFLL; listed as Arachis hypogaea)
Loading Capacity [1, 11]: 1.31 + 1.72

SEQ ID NO: 1133 (KYLGPFNGL; listed as Arachis hypogaea)
BIM score predicted using the BIMAS program [2, 10]: 6912 | SYF score predicted using the SYFPEITHI program [2, 10]: 27 | Immunopositivity of predicted CTL epitope [3]: KYLGPFNGL^c

2 (LRNLPQQCGLRAPQR; listed as Arachis hypogaea) [compound 2]
Loading Capacity ([1]; epitope in PLGA NPs, Table 68): 3.22 ± 1.96 µg/mg

VPQYGYLTL [AAV2 capsid aa 170-178, reference compound]
predicted binding to the H2-Ld locus [2]: high-scoring

SEQ ID NO: 1115 (QYGSVSTNL; listed as Arachis hypogaea)
BIM score predicted using the BIMAS program [2, 10]: 4147 | SYF score predicted using the SYFPEITHI program [2, 10]: 27 | Immunopositivity of predicted CTL epitope [3]: QYGSVSTNL^c

#1 (LALFLLAAHASARQQ; listed as Arachis hypogaea)
Loading Capacity [1, 11]: 1.62 + 2.11

SEQ ID NO: 1171 (GVLIFGKQSEKTNV; listed as Arachis hypogaea)
Score (antigenic score predicted) [4]: 22

SEQ ID NO: 1134 (EYGIVADNLD; listed as Arachis hypogaea)
BIM score predicted using the BIMAS program [2, 10]: 2400 | SYF score predicted using the SYFPEITHI program [2, 10]: 23 | Immunopositivity of predicted CTL epitope [3]: EYGIVADNL^d

#2 (LRNLPQQCGLRAPQR; listed as Arachis hypogaea)
Loading Capacity [1, 11]: 3.22 + 1.96

CCCCC/C=C\C/C=C\CCCCCCCCC(O)(CCCCCCCC/C=C\C/C=C\CCCCC)CCCCN(C)C [YSK012-C4]
pKa [5]: 8.0

SEQ ID NO: 1140 (LDRLMNPLI; listed as Arachis hypogaea)
BIM score predicted using the BIMAS program [2, 8]: 100 | SYF score predicted using the SYFPEITHI program [2, 8]: 20 | Immunopositivity of predicted CTL epitope [3]: LDRLMNPLI^e

1 (LALFLLAAHASARQQ; listed as Arachis hypogaea) [compound 1]
Loading Capacity ([1]; epitope in PLGA NPs, Table 68): 1.62 + 2.11 μg/mg

CCCCC/C=C\C/C=C\CCCCCCCCC1(CCCCCCCC/C=C\C/C=C\CCCCC)OCC(CCN(C)C)O1 (centres unmarked) [DLin-KC2-DMA, 2,2-dilinoleyl-4-(2-dimethylaminoethyl)-[1,3]-dioxolane]
activity ([6]; higher activity over DLin-K-DMA): 4 fold

QVSVEIEWELQKENS [AAV2-VP3 475-489, reference compound]
SYFPEITHI score [4]: 22 | Th2 response ([3]; C3H mice): strong Th2 response

YTKVSRYVNWIKEKT [hF.IX aa 444-460, reference compound]
SYFPEITHI score [4]: 22

SEQ ID NO: 1172 (TSADNNNSEYSWTGA; listed as Arachis hypogaea)
Score (antigenic score predicted) [7]: 24

SEQ ID NO: 1121 (LDRLMNPLI; listed as Arachis hypogaea)
SYF score predicted using the SYFPEITHI program [2, 8]: 20 | Immunopositivity of predicted CTL epitope [3]: LDRLMNPLI^e

QPARKRLNF [AAV8 capsid aa 166-174, reference compound]
predicted binding to the H2-Ld locus [2]: high-scoring

SEQ ID NO: 1141 (EEIKTTNPV; listed as Arachis hypogaea)
BIM score predicted using the BIMAS program [2, 8]: 100 | SYF score predicted using the SYFPEITHI program [2, 8]: 20 | Immunopositivity of predicted CTL epitope [3]: EEIKTTNPV^e

SEQ ID NO: 1124 (TADVNTQGV; listed as Arachis hypogaea)
BIM score predicted using the BIMAS program [2, 9]: 3.4 | SYF score predicted using the SYFPEITHI program [2, 9]: 23 | Immunopositivity of predicted CTL epitope [3]: TADVNTQGV^e

NSYVTPICIADKEYT [hF.IX aa 328-342, reference compound]
SYFPEITHI score [4]: 24

1,2-dioleoyl-3-dimethylaminopropane [DODAP]
pKa [5]: 6.6

#4 (SYGRDPYSPSQDPYS; listed as Arachis hypogaea)
Loading Capacity [1, 11]: 8.68 + 2.04

CCCCC/C=C\C/C=C\CCCCCCCCC1(CCCCCCCC/C=C\C/C=C\CCCCC)OCC(CN(C)C)O1 (centres unmarked) [DLin-K-DMA, 2,2-dilinoleyl-4-dimethylaminomethyl-[1,3]-dioxolane]
potency on the in vivo silencing of factor VII ([6]; higher than the other tested lipids): 2.5 fold

SEQ ID NO: 1182 (CKDDINSYECWCPFG; listed as Arachis hypogaea)
Score (antigenic score predicted) [7]: 18

SEQ ID NO: 1152 (GYVSGWGRVD; listed as Arachis hypogaea)
BIM score predicted using the BIMAS program [2, 10]: 1440 | SYF score predicted using the SYFPEITHI program [2, 10]: 22 | Immunopositivity of predicted CTL epitope [3]: GYVSGWGRV^d

SEQ ID NO: 1181 (YNHDIALLELLEDEPLV; listed as Arachis hypogaea)
Score (antigenic score predicted) [7]: 24

SEQ ID NO: 1173 (NGRDSLVNPGPAMAS; listed as Arachis hypogaea)
Score (antigenic score predicted) [7]: 24

SEQ ID NO: 1180 (NKWCSCTEGYRLAE; listed as Arachis hypogaea)
Score (antigenic score predicted) [4]: 22

LEPLGLVEEGAKTAP [AAV8-VP3 aa 126-140, reference compound]
SYFPEITHI score [4]: 28 | Th1 response ([3]; C3H mice): strong H2k MHC II-restricted Th1 response

SEQ ID NO: 1183 (QYVDGDQCESNPCLN; listed as Arachis hypogaea)
Score (antigenic score predicted) [7]: 18

SEQ ID NO: 1179 (YTKVSRYVNWIEKEKT; listed as Arachis hypogaea)
Score (antigenic score predicted) [4]: 22

SEQ ID NO: 1170 (QVSVEIEWELQKENS; listed as Arachis hypogaea)
Score (antigenic score predicted) [4]: 22 | Immunopositivity of MHC II peptide [3]: QVSVEIEWELQKENS^b

SEQ ID NO: 1174 (LEPLGLVEEGAKTAP; listed as Arachis hypogaea)
Score (antigenic score predicted) [4]: 28 | Immunopositivity of MHC II peptide [3]: LEPLGLVEEGAKTAP^b
